Test results as given in patent US20210251975A1, “USE OF CICLOPIROX FOR INHIBITING HBV CORE ASSEMBLY” (GWANGJU INSTITUTE OF SCIENCE AND TECHNOLOGY, priority 2018, published 2021).

Columns and labels:
HBV [1] = assay: Screening of FDA-approved drug library: quantity of released HBV DNA from HepG2.2.15 cells; format: cell-based, Hepatitis B virus (HBV); settings: treated for 6 days
Procedure: (§1) After treating cells with drugs such as ciclopirox, entecavir, and/or tenofovir, the supernatant of the cells was collected. After adding to 30 μL of the supernatant 1×PBS of the same volume, 6 μL of 1 N NaOH was added. After incubation at 37° C. for 1 hour, 6 μL of Tris-HCl/HCl was added. Then, the protein was denatured by heat-treating at 98° C. for 5 minutes. After removing the denatured protein through centrifugation, the virus existing in the supernatant was quantified by real-time PCR.
For screening of a drug having inhibitory activity against HBV, an FDA-approved drug library with proven safety was used.
Specifically, after treating HBV-producing HepG2.2.15 cells with about 1,000 drugs at 1 mM every day for 3 days, the quantity of released HBV DNA was measured. After treating the cells with 19 drugs selected through the first screening for 6 days according to the same method, 13 drugs were selected by measuring HBV DNA (second screening). Entecavir, which is used as an HBV drug, was used as a positive control group.

[2] = molecular target: T1, HBV core and capsid proteins (Hepatitis B virus genotype D subtype ayw, UniProt P03146); assay: Expression of core and capsid proteins (immunoblot) for the 19 screened drugs; format: cell-based; settings: D in FIG. 1
T1 construct: expressed in transfected cells; host or cells: HepG2.2.15
T1 sequence (P03146 whole entry): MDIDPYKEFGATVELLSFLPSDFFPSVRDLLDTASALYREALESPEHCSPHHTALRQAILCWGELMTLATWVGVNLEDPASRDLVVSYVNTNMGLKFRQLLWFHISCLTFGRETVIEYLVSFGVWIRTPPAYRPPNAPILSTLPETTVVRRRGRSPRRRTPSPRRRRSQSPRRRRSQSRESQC
Text: (§2) Results were expressed as mean±standard deviation and tested by the Student's t-test. *: p<0.05, ** p<0.01.
It was identified to be ciclopirox.

[3] = tested on: core protein 149 (CP149) dimers; assay: Core assembly reaction of purified core protein 149 (CP149) dimers, incl. sucrose gradient ultracentrifugation and electron microscopy; format: biochemical, Hepatitis B virus (HBV)
Text: In addition, in order to investigate whether the core assembly is inhibited and the protein remains as dimers, reaction products were separated through ultracentrifugation at different sucrose concentrations after the assembly of CP149 under the assembly reaction conditions.

HBsAg protein = assay: Secreted HBsAg protein by ELISA in HBV-expressing and HBV-overexpressing cell lines; format: cell-based, Hepatitis B virus (HBV); settings: ciclopirox concentration gradient
Procedure: as §2
The secreted HBsAg protein of HBV was analyzed by enzyme-linked immunosorbent assay. Specifically, HBsAg-specific ELISA was used. A supernatant collected from the cells treated with each drug was analyzed using a kit (hepatitis B surface antigen Ab ELISA kit) according to the instruction of the manufacturer (Abnova).

HBV core protein [4] = assay: Structural analysis (crystals) of ciclopirox binding site of HBV core protein and Y118 mutation; set-up: species or system Hepatitis B virus (HBV)
Procedure: The secondary structure of the protein was computed using STRIDE. […] E and F in FIG. 3 show the ciclopirox-bound and ciclopirox-free sites of chains B and C.
Therefore, the ciclopirox binding site of the HBV core protein was investigated. Specifically, structural analysis of the core protein was conducted by forming crystals.

HBV [5] = assay: HBV DNA released out of or remaining in cells at ciclopirox concentration gradient; format: cell-based, Hepatitis B virus (HBV); settings: HBV-expressing (HepG2.2.15) and HBV-overexpressing cell lines, 6 days, increasing concentration
Text: Specifically, A and B in FIG. 5 show a result of treating HepG2.2.15 cells and HBV-expressing liver cells with ciclopirox for 6 days and investigating the decrease of HBV DNA at different concentration gradients. C and D FIG. 5 show a result of investigating the inhibitory effect of ciclopirox by extracting HBV DNA from the cells rather than the DNA secreted out of the cells. Specifically, after lysing HepG2.2.15 cells and HBV-expressing liver cells and removing […] using micrococcal nuclease, virus DNA was extracted and its expression level was investigated. As a result, it was confirmed that HBV DNA was decreased according to the concentration gradient of ciclopirox.
as §1
After treating cells with drugs such as ciclopirox, entecavir, and/or tenofovir, the cells were washed with 1×PBS. Then, after lysing the cells and treating with nuclease, HBV DNA was extracted from the cells. […]

HBV [6] = assay: HBV infection system in NTCP-HepG2 and NTCP-Huh7 cells; format: cell-based, Hepatitis B virus (HBV); settings: NTCP-HepG2 and NTCP-Huh7, 14 days, concentration gradient
Procedure: Specifically, after treating HepG2 and Huh7 cell lines which express a receptor (NTCP) essential for HBV infection with ciclopirox for 6 hours, the supernatant of HepG2.2.15 cells were treated with ciclopirox. 16 hours later, after viral washing, followed by treating with ciclopirox every day for 14 days, the cells and cell supernatant were collected and analyzed. B and C in FIG. 6 show a result of investigating the expression of NTCP in the NTCP cell lines by immunoblot and flow cytometry. D to F in FIG. 6 show the HBV-inhibiting effect of ciclopirox in the virus infection system.
In addition, after treating HBV-infected liver cancer cell lines NTCP-HepG2 and NTCP-Huh7 with ciclopirox, the degree of HBV proliferation was analyzed. After pretreating the liver cancer cell lines with ciclopirox for 6 hours, the cells were incubated with ciclopirox and HBV for 16 hours. Then, the cells were analyzed after culturing for 14 days. This experimental procedure is schematically illustrated in A in FIG. 6. As shown in B and C in FIG. 6, the NTCP protein expressed from the liver cancer cells NTCP-HepG2 and NTCP-Huh7 was analyzed by immunoblot and flow cytometry.

HBV [7] = assay: Combination treatment of ciclopirox with entecavir or tenofovir in liver cancer cell lines; format: cell-based, Hepatitis B virus (HBV); settings: ciclopirox alone or plus 1 mM ETV or 1 mM TDF
Procedure: After treating with ciclopirox according to a concentration gradient, 1 mM ETV or 1 mM TDF was treated in combination.
After treating cells with drugs such as ciclopirox, entecavir, and/or tenofovir, the cells were washed with 1×PBS. Then, after lysing the cells and treating with nuclease, HBV DNA was extracted from the cells. The DNA was extracted according to the instruction of the manufacturer (InvivoGen).

HBV [8] = assay: HBV-expressing mouse (hydrodynamic injection of pAAV HBV 1.2x plasmid); format: in vivo
Procedure: Specifically, after expressing HBV in mouse by injecting using a hydrodynamic injection method an HBV-expressing pAAV HBV 1.2× plasmid into the mouse tail, the drug was treated every day for 5 days.
Specifically, HBV was produced in vivo by hydrodynamically injecting an HBV-expressing plasmid into mouse tail. Then, after treating with ciclopirox alone, tenofovir alone, or a combination of ciclopirox and tenofovir every day for 5 days, the degree of proliferation of HBV in mouse serum was investigated. The experimental procedure is schematically illustrated in A in FIG. 8.

HBV core protein [9] = assay: Core assembly in core protein-expressing and entire HBV protein-expressing cell lines
Procedure: Specifically, the isolated Cp149 dimeric protein was incubated with a core assembly reaction buffer (150 mM NaCl, 15 mM HEPES) and the drug at 37° C. for 1 hour. Then, after separating the protein on agarose gel, immunoblot was conducted using a rabbit polyclonal anti-HBV core antibody. In addition, for isolation of the core expressed in the cells, the cells were lysed with 1% NP-40 and ultracentrifuged (55,000 rpm) at 20° C. for 8 hours. The assembled core that settled down at the bottom was separated on agarose gel and then immunoblot was conducted using a rabbit polyclonal anti-HBV core antibody.

[10] = sucrose gradient 10% to 50%, ultracentrifugation, treated vs not treated

## Cc1cc(C2CCCCC2)n(O)c(=O)c1 [ciclopirox]
HBV [1]
  inhibition of released HBV DNA (second screening): consistent effects
[2]
  expression of the capsid protein: remarkably inhibited
  expression of the core protein: without affecting
[3]; E in FIG. 2
  morphology of the assembled core (electron microscopic images): the size of the assembled core is enlarged by ciclopirox and the circular shape is destroyed
[3]; assembly reaction buffer, 37° C., 1 hour, immunoblot
  assembly of the purified core protein 149 (CP149) dimers: inhibited as the concentration of ciclopirox increased
[3]; [10]
  core-assembled CP149 (fractions 5-8): decreased
  dimeric CP149 (fractions 1-3): increased
HBsAg protein
  amount of the released HBsAg protein: no effect
HBV core protein [4]; D in FIG. 3
  inhibition of core assembly with core protein mutated at Y118: mutation at Y118 reduces inhibition of core assembly
HBV core protein [4]; crystal structure, hexameric core protein, hydrogen bonding at tyrosine 118
  binding to the HBV core protein: binding directly to the HBV core protein
HBV [5]
  quantity of HBV DNA released out of cells: decreased
  quantity of HBV DNA remaining in cells: decreased
HBV [6]
  HBV DNA released out of the cells: decrease
  HBV cccDNA remaining in the cells: decrease
  HBV rcDNA remaining in the cells: decrease
HBV [7]
  quantity of the HBsAg protein secreted out of the cells: No HBsAg-inhibiting effect
HBV [8]; ciclopirox alone
  HBV DNA 5 days after the treatment: almost nonexistent
HBV [8]; treated every day for 5 days
  amount of HBV DNA in blood: remarkably reduces
  amount of the HBsAg protein in blood: no significant difference
  quantity of the HBV core protein in liver cells: reduced
HBV core protein [9]
  core assembly in each cell line: inhibited according to the concentration gradient
